Among the test systems are PC-3; SK-OV-3; KM12; UO-31; A549; MDA-MB-435; NCI/ADR-RES; HCT-15; TK-10; U-251; RXF 393; MDA-MB-231; 786-0; SK-MEL-28; NCI-H522; OVCAR-8; A498; EKVX; SNB-75; SNB-19.
Experiment in all cases: NCI tumour cell line growth inhibition, 48 h

Data on 1 molecule can be found in ChEMBL document CHEMBL1201862, “PubChem BioAssay data set” (2004).

Where a name gives a salt, the structure may show the parent alone.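 How tested: cells in 96-well plates exposed to compound for 48 hours at five concentrations. Here, GI50 denotes the concentration required for 50% inhibition of growth.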 The source made the active and inactive calls. No stated cut-off is given here; in the data, active = GI50 up to about 1.1 µM and inactive = higher.

For the molecule `O=C1c2c(O)cccc2-c2nn(CCNCCO)c3ccc(NCCNCCO)c1c23` [LOSOXANTRONE HYDROCHLORIDE], the GI50 in the assay with PC-3 is 160 nM (active); in the assay on SK-OV-3 it was 73.5 nM (active); with KM12, 590 nM (active); with UO-31 it was 1520 nM (inactive); in the assay on A549 it was < 10 nM (active); with MDA-MB-435 it was 530 nM (active). Besides, the GI50 was 8280 nM (inactive) with NCI/ADR-RES; 2360 nM in the assay with HCT-15; 685 nM (active) with TK-10; 12.2 nM (active) in the assay on U-251; 188 nM (active) in the assay with RXF 393; 185 nM (active) in the assay on MDA-MB-231. Further, the GI50 in the assay on 786-0 is < 18.5 nM (active); in the assay on SK-MEL-28 it was 447 nM (active); in the assay on NCI-H522, 22.8 nM (active); with OVCAR-8, 159 nM (active); with A498, < 11.3 nM (active); with EKVX it was 867 nM (active). For the same molecule, the GI50 is 47 nM (active) in the assay with SNB-75 and < 16.7 nM (active) in the assay with SNB-19.
